Columns and labels:
[1] = In vitro skin flux, testosterone from saturated aqueous solution (Example 1)
Description: (§1) In vitro skin flux studies were conducted using human cadaver epidermal membrane in modified Franz non-jacketed diffusion cells. […] This method involves the exposure of the full-thickness skin to water at 60° C. for a time period of 60 seconds. After this period, the epidermal membrane was gently peeled off the dermis and stored for later use in aluminum foil at -5° C.
Permeation experiments with aqueous solutions were performed using pre-saturated drug solutions containing excess drug solid (infinite dose). Prior to skin permeation experiments, the epidermal membrane was allowed to hydrate over night as described above. […]
(§2) The following sampling procedure was used for all dosage forms. At predetermined sampling time points, the entire contents of the receiver compartment were collected for drug quantitation and the receiver compartment was filled with fresh solution, taking care to eliminate any air bubbles at the skin/solution interface. The cumulative amount of drug permeated per unit area at any time t(Qt, μg/cm^2) was determined as follows: [formula] where CN is the concentration (μg/ml) of the drug in the receiver sample for the corresponding sample time, V is the volume of fluid in the receiver chamber (~6.3 cm^3), and A is the diffusional area of the cell (0.64 cm^2). […]

[2] = In vitro skin flux, testosterone from hydroalcoholic gel (Example 2)
Description: as §1
Permeation experiments with hydroalcoholic gels were performed using finite occluded doses. The occluded dose is an appropriate in vitro model for the application of a transdermal patch drug delivery system containing a liquid or gel reservoir.
Occluded dosing experiments were set-up according to the following procedure. […]
as §2

[3] = In vitro skin flux, diclofenac from adhesive matrix systems (Example 8); type: in vitro ADME, human
Description: The effect of fatty acid lactylate salts on the permeation of a model acidic drug from some copolymer adhesive matrix systems was evaluated using diclofenac, a non-steroidal anti-inflammatory. The following matrix systems were prepared to test the effect of fatty acid lactylate salts on the permeation of this acidic compound from copolymer adhesives: (a) Diclofenac acid at 1.8% (w/w) in Durotak 87-2516 (National Starch and Chemical, New Jersey), a solvent based acrylic adhesive, at 92.8% (w/w) (Formula 8-A); (b) sodium diclofenac at 2.0% (w/w) in Nacor 72-9965 (National Starch and Chemical Company, New Jersey), an aqueous emulsion based acrylic adhesive, at 98% (w/w) (Formula 8-C); sodium diclofenac at 2.0% (w/w) and Robond PS-20 (Rohm and Haas, Philadelphia, Pa.) an aqueous emulsion based acrylic adhesive, at 93.6% (w/w) with polyvinylpyrrolidone (PVP, Kollidon 90, BASF, New Jersey) at 2.0% (w/w) as a thickening agent (Formula 8-E).

[4] = In vitro skin flux, estradiol from organic solvent based adhesive matrix (Example 3); type: in vitro ADME, human; conditions: organic solvent based acrylic PSA; vs free acid form
Description: Pressure sensitive adhesive matrix systems prepared according to the following steps. First, the solids content of the adhesive solution (water or organic solvent based) was determined by placing a known weight of solution in a weighed aluminum dish and evaporating the solvents overnight in a 70° C. convection oven. The solid adhesive content of the solution was calculated by dividing the adhesive solid weight after drying by the initial total solution weight. Next, a weighed quantity of adhesive solution was added to a glass bottle and the drug substance, permeation enhancer, and other excipients were weighed and added to the adhesive solution in a quantity necessary to achieve the desired dry matrix film composition. […]
The following sampling procedure was used for all dosage forms. At predetermined sampling time points, the entire contents of the receiver compartment were collected for drug quantitation and the receiver compartment was filled with fresh solution, taking care to eliminate any air bubbles at the skin/solution interface. The cumulative amount of drug permeated per unit area at any time t(Qt, μg/cm^2) was determined as follows: [formula] where CN is the concentration (μg/ml) of the drug in the receiver sample for the corresponding sample time, V is the volume of fluid in the receiver chamber (~6.3 cm^3), and A is the diffusional area of the cell (0.64 cm^2).

[5] = In vitro skin flux, clonidine from adhesive matrix systems (Example 7); type: in vitro ADME, human
Description: Permeation enhancement by a fatty acid lactylate salt was also evaluated with the basic antihypertensive drug clonidine in both free base and HCl acid addition salt forms. […] (Formulas 7-B, 7-D, 7-F and 7-H respectively).

[6] = In vitro skin flux, buspirone free base from organic solvent based acrylic adhesive (Example 5); type: in vitro ADME, human; conditions: organic solvent based acrylic PSA
Description: Permeation enhancement of the potassium salt form of lauroyl lactylic acid using buspirone free base as a model drug was evaluated in an organic solvent based acrylic pressure sensitive adhesive.

[7] = In vitro skin flux, buspirone HCl from aqueous emulsion based acrylic PSA (Example 4); type: in vitro ADME, human
Description: Permeation enhancement of the potassium salt form of lauroyl lactylic acid (R.I.T.A. Corp., Woodstock, Ill.) in an aqueous emulsion based acrylic pressure sensitive adhesive (PSA) was evaluated using buspirone HCl as a model drug.

| Compound | permeation enhancement (in words) [1] | permeation enhancement (in words) [2] | enhancement by free acid form compared with Formulas 8-D and 8-F (in words) ([3]; aqueous emulsion based adhesives, "will show") | enhancement by free acid form compared with Formula 8-B (in words) ([3]; solvent based adhesive, "will show") | effectiveness as permeation enhancer (in words) [4] | increase of clonidine permeation over unenhanced counterpart ([5]; aqueous emulsion based matrix systems, Tables 7-1, 7-2, 7-3) | effectiveness as enhancer (in words) ([5]; clonidine HCl, aqueous emulsion based matrix systems) | effectiveness as enhancer (in words) ([5]; clonidine base, organic solvent based adhesive matrix, Table 7-4) | increase in permeation, acid form of diclofenac ([3]; […] sodium lauroyl lactylate, Table 8-1) | effectiveness as enhancer (in words) ([3]; all of the matrix systems tested) | effectiveness as permeation enhancer (in words) [6] | effectiveness as permeation enhancer (in words) [7] |
| --- | --- | --- | --- | --- | --- | --- | --- | --- | --- | --- | --- | --- |
| CCCCCCCCCCCC(=O)OC(C)C(=O)O (centres unmarked) [lauroyl lactylic acid, reference compound] | significant permeation enhancement | significant permeation enhancement | significant reduction in enhancement | somewhat comparable results |  |  |  |  |  |  |  |  |
| CCCCCCCCCCCC(=O)OC(C)C(=O)OC(C)C(=O)[O-].[Na+] (centres unmarked) [sodium lauroyl lactylate] | significant permeation enhancement | significant permeation enhancement |  |  | less effective as a permeation enhancer than the free acid form | about two fold | consistently effective enhancer | not an effective enhancer | about 50% | consistently effective enhancer |  |  |
| potassium lauroyl lactylate |  |  |  |  |  |  |  |  |  |  | not an effective permeation enhancers | unexpectedly effective permeation enhancer |
